# Laboratory results taken from PubChem BioAssay (NCI).
# Values joined by “and” are separate entries in the source; they are usually repeats but may differ in a detail not shown here. Equal entries are not always repeated.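 1) Cells in 96-well plates. 2) Compound, 48 h, 5 concentrations. 3) Linear interpolation between surrounding doses. 4) Unreached endpoint = highest concentration. TGI: total growth inhibition.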 Starred links: 1 amine or outer side, 2 acyl side, 3 side chain; linkers in the order of their positions; H or OH if unused. Positions of bridges follow the written chain, without caps; N, C: chain ends. Non-standard residues stand in square brackets, D forms with d. Residues, ends and D or L forms follow the SMILES beside them. Chains are numbered I, II in the order given. Actinocin(1to9) = Cc1c2oc3c(C)ccc(C(=O)[*:2])c3nc-2c(C(=O)[*:1])c(N)c1=O; NMeV = CN[CH](C(=O)O)C(C)C; Sar = CNCC(=O)O
# Key:
# Test in all cases: NCI-60 cell line screen, 48 h
# SN12C renal = system: SN12C renal
# DU-145 prostate = system: DU-145 prostate
# OVCAR-5 ovarian = system: OVCAR-5 ovarian
# EKVX NSCLC = system: EKVX NSCLC
# HOP-92 NSCLC = system: HOP-92 NSCLC
# SF-268 CNS = system: SF-268 CNS
# NCI-H460 lung = system: NCI-H460 lung
# SNB-19 CNS = system: SNB-19 CNS
# MCF7 breast = system: MCF7 breast
# M14 melanoma = system: M14 melanoma
# NCI-H226 lung = system: NCI-H226 lung
# SK-MEL-2 melanoma = system: SK-MEL-2 melanoma
# ACHN renal = system: ACHN renal
# RXF 393 renal = system: RXF 393 renal
# CCRF-CEM leukemia = system: CCRF-CEM leukemia
smiles,measurement,setting,value
CC(C)=CCC[C@@H](C)/C=C/C=C(\C)C(=O)CC[C@@H]1CC[N@+]2(C)CCCC[C@H]12,TGI,SN12C renal,> 100 µM
same,TGI,DU-145 prostate,> 100 µM
same,TGI,OVCAR-5 ovarian,> 100 µM
same,TGI,EKVX NSCLC,> 100 µM
same,TGI,HOP-92 NSCLC,> 100 µM
same,TGI,SF-268 CNS,> 100 µM
same,TGI,NCI-H460 lung,> 100 µM
same,TGI,SNB-19 CNS,> 100 µM
same,TGI,MCF7 breast,> 100 µM
same,TGI,M14 melanoma,> 100 µM
same,TGI,NCI-H226 lung,> 100 µM
same,TGI,SK-MEL-2 melanoma,> 100 µM
same,TGI,ACHN renal,> 100 µM
same,TGI,RXF 393 renal,> 100 µM
Cc1cc2c(c(C=Nc3ccccc3O)c1)OC1(C=C2)Oc2ccccc2C(=O)N1C (stereo not given),TGI,SN12C renal,46.5 µM
same,TGI,DU-145 prostate,39.9 µM
same,TGI,OVCAR-5 ovarian,30 µM
same,TGI,EKVX NSCLC,40.5 µM
same,TGI,HOP-92 NSCLC,32.2 µM
same,TGI,SF-268 CNS,36.3 µM
same,TGI,NCI-H460 lung,30.6 µM
same,TGI,SNB-19 CNS,> 100 µM
same,TGI,M14 melanoma,57.5 µM
same,TGI,NCI-H226 lung,36.4 µM
same,TGI,SK-MEL-2 melanoma,50 µM
same,TGI,ACHN renal,40.3 µM
same,TGI,CCRF-CEM leukemia,46.3 µM
same,TGI,RXF 393 renal,37.2 µM
CCCNC(=S)/N=C/c1c(O)cc(C)oc1=O,TGI,SN12C renal,> 100 µM
same,TGI,DU-145 prostate,> 100 µM
same,TGI,OVCAR-5 ovarian,> 100 µM
same,TGI,EKVX NSCLC,> 100 µM
same,TGI,HOP-92 NSCLC,> 100 µM
same,TGI,NCI-H460 lung,> 100 µM
same,TGI,SNB-19 CNS,> 100 µM
same,TGI,MCF7 breast,> 100 µM
same,TGI,M14 melanoma,> 100 µM
same,TGI,NCI-H226 lung,> 100 µM
same,TGI,SK-MEL-2 melanoma,> 100 µM
same,TGI,ACHN renal,> 100 µM
CC(C)(O)/C=C\P(=O)(O)O,TGI,SN12C renal,> 100 µM
same,TGI,DU-145 prostate,> 100 µM
same,TGI,OVCAR-5 ovarian,> 100 µM
same,TGI,EKVX NSCLC,> 100 µM
same,TGI,HOP-92 NSCLC,> 100 µM
same,TGI,SF-268 CNS,> 100 µM
same,TGI,NCI-H460 lung,> 100 µM
same,TGI,SNB-19 CNS,> 100 µM
same,TGI,MCF7 breast,> 100 µM
same,TGI,M14 melanoma,> 100 µM
same,TGI,NCI-H226 lung,> 100 µM
same,TGI,SK-MEL-2 melanoma,> 100 µM
same,TGI,ACHN renal,> 100 µM
same,TGI,RXF 393 renal,> 100 µM
CCOC(=O)C(/C(=N/S(=O)(=O)c1cc(C)c(Cl)cc1[S-])[n+]1ccc(N(C)C)cc1)=C(/O)c1ccc([N+](=O)[O-])cc1,TGI,SN12C renal,> 100 µM
same,TGI,DU-145 prostate,> 100 µM
same,TGI,OVCAR-5 ovarian,> 100 µM
same,TGI,HOP-92 NSCLC,23.9 µM
same,TGI,SF-268 CNS,> 100 µM
same,TGI,NCI-H460 lung,> 100 µM
same,TGI,MCF7 breast,> 100 µM
same,TGI,M14 melanoma,96.6 µM
same,TGI,NCI-H226 lung,> 100 µM
same,TGI,SK-MEL-2 melanoma,28.3 µM
same,TGI,ACHN renal,71.6 µM
same,TGI,CCRF-CEM leukemia,87.2 µM
same,TGI,RXF 393 renal,> 100 µM
C#C[C@]1(O)CC[C@H]2[C@@H]3CCC4=C/C(=N/OCCN(C)C)CC[C@]4(C)[C@H]3CC[C@@]21C,TGI,SN12C renal,> 100 µM
same,TGI,DU-145 prostate,> 100 µM
same,TGI,OVCAR-5 ovarian,> 100 µM
same,TGI,EKVX NSCLC,> 100 µM
same,TGI,HOP-92 NSCLC,> 100 µM
same,TGI,SF-268 CNS,> 100 µM
same,TGI,NCI-H460 lung,> 100 µM
same,TGI,SNB-19 CNS,> 100 µM
same,TGI,MCF7 breast,> 100 µM
same,TGI,M14 melanoma,35.2 µM
same,TGI,NCI-H226 lung,85.8 µM
same,TGI,SK-MEL-2 melanoma,> 100 µM
same,TGI,ACHN renal,> 100 µM
same,TGI,CCRF-CEM leukemia,83.1 µM
"CCC(C)C1NC(=O)C(NC(=O)c2c3nc4c(C(=O)NC5C(=O)NC(C(C)CC)C(=O)N6CCCC6C(=O)N(C)CC(=O)N(C)C(C(C)C)C(=O)OC5C)ccc(C)c4oc-3c(C)c(=O)c2N)C(C)OC(=O)C(C(C)C)N(C)C(=O)CN(C)C(=O)C2CCCN2C1=O (stereo not given) (I: TIP[Sar][NMeV] / II: TIP[Sar][NMeV]; ester I:1-I:C, II:1-II:C; linker I:N-II:N via Actinocin(1to9); configuration not given here)",TGI,SN12C renal,0.192 µM and 0.263 µM
same,TGI,OVCAR-5 ovarian,0.0273 µM and 0.0172 µM
same,TGI,EKVX NSCLC,0.248 µM and 0.0692 µM
same,TGI,HOP-92 NSCLC,0.085 µM
same,TGI,SF-268 CNS,0.0586 µM
same,TGI,SNB-19 CNS,0.0111 µM
same,TGI,M14 melanoma,0.0272 µM
same,TGI,SK-MEL-2 melanoma,0.00277 µM
same,TGI,CCRF-CEM leukemia,0.0106 µM
same,TGI,RXF 393 renal,0.0214 µM and 0.048 µM
COc1cc(NS(C)(=O)=O)ccc1Nc1cc[nH]c2ccc3nccc3c12,TGI,SN12C renal,28.2 µM
same,TGI,DU-145 prostate,27.7 µM
same,TGI,OVCAR-5 ovarian,30.8 µM
same,TGI,EKVX NSCLC,51.3 µM
same,TGI,HOP-92 NSCLC,24.8 µM
same,TGI,SF-268 CNS,25 µM
same,TGI,NCI-H460 lung,34.5 µM
same,TGI,SNB-19 CNS,29.9 µM
same,TGI,MCF7 breast,35.9 µM
same,TGI,M14 melanoma,32.2 µM
same,TGI,NCI-H226 lung,36.9 µM
same,TGI,SK-MEL-2 melanoma,30.9 µM
same,TGI,ACHN renal,32.8 µM
same,TGI,CCRF-CEM leukemia,40.9 µM
